# Target: T1, Edg-1/S1P1 receptor (Homo sapiens, UniProt P21453)
# T1 construct: expressed in transfected cells; host or cells: human osteogenic sarcoma U2OS cells: Edg-1 Transfluor U2OS WT Clone #37 (assay I), Edg-1 Transfluor U2OS Clone #3 (assay II)
# Experiment: In vitro cell based receptor activation assay - Transfluor assay (assay I or II; beta-arrestin GFP relocalization after S1P stimulation)
# Settings: for inhibition at 3.5 µM: at 3.50 μM (titrated from top concentration 10 μM); for inhibition at 3.7 µM: at 3.70 μM (titrated from top concentration 100 μM)
# Text: The following assays can be used to measure the effects of the compounds of the present invention as S1P1/Edg1 inhibitors.
# I. In Vitro Cell Based Receptor Activation Assay-Transfluor Assay
# (§1) This cell-based assay was designed to assess the ability of small molecule antagonists to inhibit activation of the GPCR S1P1 in the presence of its cognate ligand S1P. The assay used technology initially developed by Norak Biosciences (Xsira Pharmaceutical) and presently owned by Molecular Devices. A human osteogenic sarcoma (U2OS) cell line overexpressing the Edg-1/S1P1) receptor as well as a beta-arrestin/green fluorescent protein (GFP) construct hereafter termed Edg-1 Transfluor U2OS WT Clone #37 was employed.
# Using a high content screening approach (Cellomics Arrayscan), receptor activity was measured by assessment of the relocalization of beta-arrestin GFP in response to stimulation of Edg-1 by SIP. Specifically, Edg-1 Transfluor U2OS WT Clone #37 cells were plated at a density of 6250 cells in 40 μL medium per well in 384 well plastic bottomed microtiter plates (BD Falcon) and incubated overnight at 37° C./5% CO2. Prior to screening, compounds were dissolved in 100% dimethyl sulfoxide (DMSO) to a final stock concentration of 10 mM. Compounds were then serially diluted at 30× final concentration in Edg-1 Transfluor cell growth medium containing […] using the Tecan Genesis instrument. These 30× plates were then diluted to 6× final concentration with Edg-1 Transfluor growth medium just prior to dosing. Cells were then dosed with 10 μL per well of 6× compound dilutions or 6% DMSO and pre-incubated for 15 minutes at room temperature. Cell plates were dosed with 10 μL per well 6× S1P Edg-1 Transfluor growth medium, then incubated for 45 minutes at 37° C./5% CO2. Final concentration in the well of DMSO was 1%, compound was IX (3-fold, 9 point IC50 dilutions starting at 100 μM final concentration), and either 375 nM or […] SIP ligand. Cell plates were then fixed by adding 50 μL per well of 5% formaldehyde in 1× Dulbecco's phosphate buffered saline (DPBS) directly and incubating for 30 minutes at room temperature in darkness. Fixative was removed and replaced with 50 μL per well of 1×DPBS, after which cells were stained with 10 μg/mL final concentration of Hoechst 33342 (Molecular Probes) for 15 minutes at room temperature in darkness. Stain was then removed from the plates and replaced with 50 μL per well of 1×DPBS using the BioTek ExL405 plate washer. Plates were then sealed and analysed on the Cellomics Arrayscan using the GPCR signalling algorithm. EC50 values were then calculated using IDBS ActivityBase software.
# II. In Vitro Cell Based Receptor Activation Assay-Transfluor Assay
# as §1, with “Devices (MDS Analytical Technologies).” for “Devices.”, “U2OS” for “U2OS WT”, “#3” for “#37”
# Using a high content screening approach (Molecular Devices Image Express), receptor activity was measured by assessment of the relocalization of beta-aiTestin GFP in response to stimulation of Edg-1 by S1P. Specifically, Edg-1 Transfluor U2OS Clone #3 cells were plated at a density of 6250 cells in 44 μL medium per well in 384 well plastic bottomed microtiter plates (BD Falcon) and incubated overnight at 37° C./5% CO2. Prior to screening, compounds were dissolved in 100% dimethyl sulfoxide (DMSO) to a final stock concentration of 10 mM. Compounds were then serially diluted at 10× final concentration in Edg-1 Transfluor cell growth medium containing 6% DMSO using the BioMek instrument. […]
# T1 sequence (P21453 whole entry): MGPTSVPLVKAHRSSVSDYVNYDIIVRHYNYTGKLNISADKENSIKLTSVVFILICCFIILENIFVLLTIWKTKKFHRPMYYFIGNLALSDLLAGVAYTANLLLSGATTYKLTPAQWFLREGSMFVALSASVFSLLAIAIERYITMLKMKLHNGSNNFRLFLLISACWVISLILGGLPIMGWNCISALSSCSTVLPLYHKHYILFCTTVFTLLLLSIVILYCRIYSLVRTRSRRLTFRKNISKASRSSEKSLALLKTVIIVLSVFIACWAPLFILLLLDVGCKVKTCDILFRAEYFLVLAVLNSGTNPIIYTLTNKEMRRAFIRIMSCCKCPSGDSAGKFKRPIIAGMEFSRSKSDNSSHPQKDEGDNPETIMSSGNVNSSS
Compound,inhibition at 3.5 µM [%],inhibition at 3.7 µM [%],other results
"CCn1c([C@H](C)NS(=O)(=O)c2ccc(Cl)cc2)nc2cnccc21 [4-chloro-N-[(1S)-1-(1-ethyl-1H-imidazo[4,5-c]pyridin-2-yl)ethyl]benzenesulfonamide]",–,–,"EC50 (one or the other of the two Transfluor assays, Edg-1 Transfluor U2OS cells, S1P ligand): > 33 µM"
"CCn1c([C@@H](C)NS(=O)(=O)c2ccc(F)c(C)c2)nc2ccc(C(F)(F)F)cc21 [Example 30, N-{(1R)-1-[1-Ethyl-6-(trifluoromethyl)-1H-benzimidazol-2-yl]ethyl}-4-fluoro-3-methylbenzenesulfonamide]",94.6,–,–
"CCn1c([C@@H](C)NS(=O)(=O)c2ccc(Cl)cc2)nc2cc(CO)ccc21 [Example 78, 4-Chloro-N-{(1R)-1-[1-ethyl-5-(hydroxymethyl)-1H-benzimidazol-2-yl]ethyl}benzenesulfonamide]",–,58.4,–
"CCn1c([C@@H](C)NS(=O)(=O)c2ccc(Cl)cc2)nc2cc(F)c(F)cc21 [Example 20, 4-Chloro-N-[(1R)-1-(1-ethyl-5,6-difluoro-1H-benzimidazol-2-yl)ethyl]benzenesulfonamide]",–,79.5,–
"CCn1c(C(C)NS(=O)(=O)c2ccc(Cl)cc2)nc2c(Cl)nccc21 (stereo not shown) [Example 94, 4-Chloro-N-[1-(4-chloro-1-ethyl-1H-imidazo[4,5-c]pyridin-2-yl)ethyl]benzenesulfonamide]",–,91.6,–
"CCn1c([C@@H](C)NS(=O)(=O)c2cccs2)nc2ccc(C(F)(F)F)cc21 [Example 39, N-{(1R)-1-[1-Ethyl-6-(trifluoromethyl)-1H-benzimidazol-2-yl]ethyl}thiophene-2-sulfonamide]",92.5,–,–
"C#Cc1ccc(S(=O)(=O)N[C@H](C)c2nc3ccc(C(F)(F)F)cc3n2CC)cn1 [Example 133, (R)-N-(1-(1-Ethyl-6-(trifluoromethyl)-1H-benzo[d]imidazol-2-yl)ethyl)-6-ethynylpyridine-3-sulfonamide]",86.4,–,–
"CCn1c([C@@H](C)NS(=O)(=O)c2cc(C)oc2C)nc2ccc(C(F)(F)F)cc21 [Example 33, N-{(1R)-1-[1-Ethyl-6-(trifluoromethyl)-1H-benzimidazol-2-yl]ethyl}-2,5-dimethylfuran-3-sulfonamide]",92,–,–
"CC(NS(=O)(=O)c1ccc(Cl)cc1)c1nc2ccccc2n1CC(F)(F)F (stereo not shown) [Example 23, 4-Chloro-N-{1-[1-(2,2,2-trifluoro-ethyl)-1H-benzimidazol-2-yl]-ethyl}-benzenesulfonamide]",–,88.1,–
"CCn1c([C@@H](C)NS(=O)(=O)c2ccc(Cl)cc2)nc2cc(Br)c(C(F)(F)F)cc21 [Example 93, N-{(1R)-1-[5-Bromo-1-ethyl-6-(trifluoromethyl)-1H-benzimidazol-2-yl]ethyl}-4-chlorobenzenesulfonamide]",–,62.3,–
"CCn1c([C@@H](C)NS(=O)(=O)c2ccc(C#N)nc2)nc2ncc(C(F)(F)F)cc21 [Example 181, 6-Cyano-N-{(1R)-1-[1-ethyl-6-(trifluoromethyl)-1H-imidazo[4,5-b]pyridin-2-yl]ethyl}pyridine-3-sulfonamide]",90.6,–,–
"CCn1c(C(NS(=O)(=O)c2ccc(Cl)cc2)C(C)C)nc2ccccc21 (stereo not shown) [Example 3, 4-Chloro-N-[1-(1-ethyl-1H-benzimidazol-2-yl)-2-methyl-propyl]benzenesulfonamide]",–,59,–
"CCn1c(C(C)NS(=O)(=O)c2cnc(N)c(Cl)c2)nc2ccc(C(F)(F)F)cc21 (stereo not shown) [Example 169, 6-amino-5-chloro-N-(1-(1-ethyl-6-(trifluoromethyl)-1H-benzo[d]imidazol-2-yl)ethyl)pyridine-3-sulfonamide]",87.1,–,–
"CCn1c([C@@H](C)NS(=O)(=O)c2ccc(Cl)cc2)nc2cnccc21 [Example 102, 4-Chloro-N-[(1R)-1-(1-ethyl-1H-imidazo[4,5-c]pyridin-2-yl)ethyl]benzenesulfonamide]",93.8,–,–
"CCn1c([C@@H](C)NS(=O)(=O)c2ccc(-c3ccccc3)cc2)nc2ccc(C(F)(F)F)cc21 [Example 159, (R)-N-(1-(1-Ethyl-6-(trifluoromethyl)-1H-benzo[d]imidazol-2-yl)ethyl)biphenyl-4-sulfonamide]",19.8,–,–
"CCn1c(C(C)NS(=O)(=O)c2ccc(Cl)cc2)nc2c(OC)nccc21 (stereo not shown) [Example 95, 4-chloro-N-[1-(1-ethyl-4-methoxy-1H-imidazo[4,5-c]pyridin-2-yl)ethyl]benzenesulfonamide]",47.7,–,–
"CCn1c([C@@H](C)NS(=O)(=O)c2ccc(Cl)cc2)nc2ncc(C(F)(F)F)cc21 [Example 88, 4-Chloro-N-{(1R)-1-[1-ethyl-6-(trifluoromethyl)-1H-imidazo[4,5-b]pyridin-2-yl]ethyl}benzenesulfonamide]",–,–,inhibition at 3.55 µM (at 3.55 μM): 82.6%
"CCn1c(C(C)NS(=O)(=O)c2ccc(CN3CCOCC3)cc2)nc2ccc(C(F)(F)F)cc21 (stereo not shown) [Example 130, N-(1-(1-ethyl-6-(trifluoromethyl)-1H-benzo[d]imidazol-2-yl)ethyl)-4-(morpholinomethyl)benzenesulfonamide]",10.8,–,–
"CCn1c(C(C)(C)NS(=O)(=O)c2ccc(F)cc2)nc2cnc(C3CC3)cc21 [Example 186, 4-Fluoro-N-[1-(6-cyclopropyl-1-ethyl-1H-imidazo[4,5-c]pyridin-2-yl)-1-methyl-ethyl]-benzenesulfonamide]",56.5,–,–
"CCn1c([C@@H](C)NS(=O)(=O)c2ccc3c(c2)OCCN3C)nc2ccc(C(F)(F)F)cc21 [Example 43, N-{(1R)-1-[1-Ethyl-6-(trifluoromethyl)-1H-benzimidazol-2-yl]ethyl}-4-methyl-3,4-dihydro-2H-1,4-benzoxamide-7-sulfonamide]",93.3,–,–
"CCn1c([C@@H](C)NS(=O)(=O)c2ccc(Cl)cc2)nc2ccc(C(N)=O)cc21 [Example 71, 2-(1-{[(4-Chlorophenyl)sulfonyl]amino}-ethyl)-1-ethyl-1H-benz-imidazole-6-carboxamide]",–,77.3,–
"CCn1c([C@@H](C)NS(=O)(=O)c2ccc(F)nc2)nc2ccc(C(F)(F)F)cc21 [Example 107, (R)-N-(1-(1-Ethyl-6-(trifluoromethyl)-1H-benzo[d]imidazol-2-yl)ethyl)-6-fluoropyridine-3-sulfonamide]",92.5,–,–
"CCn1c([C@@H](C)NS(=O)(=O)c2ccc(F)c(C#N)c2)nc2ccc(C(F)(F)F)cc21 [Example 27, 3-Cyano-N-{(1R)-1-[1-ethyl-6-(trifluoromethyl)-1H-benzimidazol-2-yl]ethyl}-4-fluorobenzenesulfonamide]",85.7,–,–
"CCOC(=O)c1ccc2nc([C@@H](C)NS(=O)(=O)c3ccc(Cl)cc3)n(CC)c2c1 (stereo in doubt) [Example 67, Ethyl 2-(1-{[(4-chlorophenyl)sulfonyl]amino}-ethyl)-1-ethyl-1H-benzimidazole-6-carboxylate]",–,91.3,–
"CCn1c([C@@H](C)NS(=O)(=O)c2cn(C)c(C)n2)nc2ccc(C(F)(F)F)cc21 [Example 42, N-{(1R)-1-[1-Ethyl-6-(trifluoromethyl)-1H-benzimidazol-2-yl]ethyl}-1,2-dimethyl-1H-imidazole-4-sulfonamide]",–,41.3,–
